Data: patent US20060099643A1, “Method for determining the regulation of xenobiotic removal” (priority 2002, published 2006)

Assays:
SXR [1] = target: T1, SXR (Homo sapiens, UniProt O75469); settings: from Ekins & Erickson, Drug Metabolism and Disposition, 30, 96-99 and references therein; cited from earlier work
T1 sequence (O75469 1-434): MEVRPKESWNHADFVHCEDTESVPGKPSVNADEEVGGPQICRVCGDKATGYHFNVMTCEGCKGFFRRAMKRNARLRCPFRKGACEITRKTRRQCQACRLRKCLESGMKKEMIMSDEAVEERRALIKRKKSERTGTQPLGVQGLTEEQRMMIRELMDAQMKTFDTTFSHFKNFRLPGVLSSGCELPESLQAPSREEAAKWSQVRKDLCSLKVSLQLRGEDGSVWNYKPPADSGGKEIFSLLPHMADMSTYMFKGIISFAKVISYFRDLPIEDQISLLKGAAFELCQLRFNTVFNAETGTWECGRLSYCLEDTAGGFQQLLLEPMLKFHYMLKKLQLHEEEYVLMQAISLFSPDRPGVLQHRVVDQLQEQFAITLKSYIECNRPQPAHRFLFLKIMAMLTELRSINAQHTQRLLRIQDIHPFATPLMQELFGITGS

SXR [2] = target: T1, SXR; assay: Microplate thermal shift assay (Thermofluor) of SXR with ligands, co-activator peptide SRC1-NR2 and co-repressor peptide NCoR-1; settings: for ΔΔTm SRC1-NR2 / ΔTm ligand: SXR 6 μM, ligand 50 μM; for ΔΔTm SRC1-NR2: co-activator peptide SRC1-NR2 100 μM, change from the receptor-ligand ΔTm; for ΔTm ligand: average of four experiments; for Probability Agonist (statistical probability of agonist state): computed from affinities derived from ΔΔTm with co-regulator peptides (FIG. 3); for ΔTm at 100 µM: read-out: ΔΔTm NcoR1-NR2
Protocol: A 2 μL ligand solution at 2 times the final concentration was dispensed with a micropipette into a 384 well black wall Greiner plate. Then, 2 μL of the protein dye solution was dispensed on top of the ligand solution in the 384 well plate. The plates were spun to ensure mixing of the protein-dye and ligand solutions followed by layering of 1 μL of silicone oil to prevent evaporation during heating of the samples. […] The values for the co-regulators represent a change in Tm stabilization from the receptor-ligand ΔTm values.

Kd (SXR [2]) [nM] | ΔΔTm SRC1-NR2 (SXR [2]) | ΔTm ligand (SXR [2]) [°C] | Probability Agonist (statistical probability of agonist state) (SXR [2]) | ΔTm at 100 µM (SXR [2]) [°C] | SMILES | fold activation (SXR [1])
550 | 3.0 | 6.3 | 0.85 | 1.2 | CC[C@H](C)C(=O)O[C@H]1C[C@@H](C)C=C2C=C[C@H](C)[C@H](CC[C@@H]3C[C@@H](O)CC(=O)O3)[C@H]21 [Lovastatin] | 5-fold
1320 | 2.7 | 5 | 0.93 | 0.5 | C[C@]12C[C@H](O)[C@H]3[C@@H](CCC4=CC(=O)CC[C@@]43C)[C@@H]1CC[C@@H]2C(=O)CO [Corticosterone] | 12 fold
